PubChem BioAssay (NCI)
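Results reflect a 48-hour exposure of cells in 96-well plates to compound at five concentrations. GI50 marks 50% less growth. TGI: concentration producing complete growth inhibition.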

Experiments:
Experiment in all cases: inhibition of tumour cell growth, NCI panel, 48 h
A549 NSCLC = test system: A549 NSCLC
HOP-92 NSCLC = test system: HOP-92 NSCLC
SNB-75 CNS = test system: SNB-75 CNS
PC-3 prostate = test system: PC-3 prostate
SK-OV-3 ovarian = test system: SK-OV-3 ovarian
BT-549 breast = test system: BT-549 breast
NCI-H226 lung = test system: NCI-H226 lung
TK-10 renal = test system: TK-10 renal
UO-31 renal = test system: UO-31 renal
OVCAR-3 ovarian = test system: OVCAR-3 ovarian
HOP-62 NSCLC = test system: HOP-62 NSCLC
HCC-2998 colon = test system: HCC-2998 colon
DU-145 prostate = test system: DU-145 prostate
HCT-116 colon = test system: HCT-116 colon
CAKI-1 renal = test system: CAKI-1 renal
KM12 colon = test system: KM12 colon
T-47D breast = test system: T-47D breast
SR leukemia = test system: SR leukemia
EKVX NSCLC = test system: EKVX NSCLC
SK-MEL-28 melanoma = test system: SK-MEL-28 melanoma
SF-539 CNS = test system: SF-539 CNS
NCI-H522 lung = test system: NCI-H522 lung
U251 CNS = test system: U251 CNS
LOX IMVI melanoma = test system: LOX IMVI melanoma
A498 renal = test system: A498 renal
ACHN renal = test system: ACHN renal
SK-MEL-2 melanoma = test system: SK-MEL-2 melanoma
SN12C renal = test system: SN12C renal
IGROV1 ovarian = test system: IGROV1 ovarian
MDA-MB-468 breast = test system: MDA-MB-468 breast
OVCAR-5 ovarian = test system: OVCAR-5 ovarian
HT29 colon = test system: HT29 colon
HCT-15 colon = test system: HCT-15 colon
NCI-H460 lung = test system: NCI-H460 lung
SF-295 CNS = test system: SF-295 CNS
MDA-MB-435 = test system: MDA-MB-435
UACC-257 melanoma = test system: UACC-257 melanoma
MCF7 breast = test system: MCF7 breast
786-0 renal = test system: 786-0 renal
K-562 leukemia = test system: K-562 leukemia
HL-60(TB) leukemia = test system: HL-60(TB) leukemia
SNB-19 CNS = test system: SNB-19 CNS
M14 melanoma = test system: M14 melanoma
SF-268 CNS = test system: SF-268 CNS
HS 578T breast = test system: HS 578T breast
OVCAR-8 ovarian = test system: OVCAR-8 ovarian
OVCAR-4 ovarian = test system: OVCAR-4 ovarian
CCRF-CEM leukemia = test system: CCRF-CEM leukemia
RXF 393 renal = test system: RXF 393 renal
RPMI-8226 leukemia = test system: RPMI-8226 leukemia
NCI/ADR-RES ovarian = test system: NCI/ADR-RES ovarian
UACC-62 melanoma = test system: UACC-62 melanoma
MALME-3M melanoma = test system: MALME-3M melanoma
NCI-H23 lung = test system: NCI-H23 lung
MOLT-4 leukemia = test system: MOLT-4 leukemia
SW-620 colon = test system: SW-620 colon
MDA-MB-231 breast = test system: MDA-MB-231 breast
COLO 205 colon = test system: COLO 205 colon
SK-MEL-5 melanoma = test system: SK-MEL-5 melanoma

O=c1cc(-c2ccccc2)oc2cc(OCCCC[P+](c3ccccc3)(c3ccccc3)c3ccccc3)cc(O)c12
GI50 (A549 NSCLC): 2820 nM | TGI (A549 NSCLC): 16500 nM | GI50 (HOP-92 NSCLC): 292 nM | TGI (HOP-92 NSCLC): 1130 nM | GI50 (SNB-75 CNS): 419 nM | TGI (SNB-75 CNS): 1680 nM | GI50 (PC-3 prostate): 899 nM | TGI (PC-3 prostate): 2700 nM | GI50 (SK-OV-3 ovarian): 728 nM | TGI (SK-OV-3 ovarian): 1920 nM | GI50 (BT-549 breast): 542 nM | TGI (BT-549 breast): 1740 nM | GI50 (NCI-H226 lung): 1500 nM | TGI (NCI-H226 lung): 4200 nM | GI50 (TK-10 renal): 903 nM | TGI (TK-10 renal): 3270 nM | GI50 (UO-31 renal): 1390 nM | TGI (UO-31 renal): 2890 nM | GI50 (OVCAR-3 ovarian): 526 nM | TGI (OVCAR-3 ovarian): 2220 nM | GI50 (HOP-62 NSCLC): 1420 nM | TGI (HOP-62 NSCLC): 2870 nM | GI50 (HCC-2998 colon): 412 nM | TGI (HCC-2998 colon): 1540 nM | GI50 (DU-145 prostate): 813 nM | TGI (DU-145 prostate): 2970 nM | GI50 (HCT-116 colon): 863 nM | TGI (HCT-116 colon): 2120 nM | GI50 (CAKI-1 renal): 1630 nM | TGI (CAKI-1 renal): 4340 nM | GI50 (KM12 colon): 738 nM | TGI (KM12 colon): 2130 nM | GI50 (T-47D breast): 273 nM | TGI (T-47D breast): 2770 nM | GI50 (SR leukemia): 834 nM | TGI (SR leukemia): > 100000 nM | GI50 (EKVX NSCLC): 494 nM | TGI (EKVX NSCLC): 1860 nM | GI50 (SK-MEL-28 melanoma): 601 nM | TGI (SK-MEL-28 melanoma): 1830 nM | GI50 (SF-539 CNS): 892 nM | TGI (SF-539 CNS): 2150 nM | GI50 (NCI-H522 lung): 789 nM | TGI (NCI-H522 lung): 2540 nM | GI50 (U251 CNS): 716 nM | TGI (U251 CNS): 2160 nM | GI50 (LOX IMVI melanoma): 1130 nM | TGI (LOX IMVI melanoma): 2360 nM | GI50 (A498 renal): 2030 nM | TGI (A498 renal): 5590 nM | GI50 (ACHN renal): 996 nM | TGI (ACHN renal): 2390 nM | GI50 (SK-MEL-2 melanoma): 238 nM | TGI (SK-MEL-2 melanoma): 603 nM | GI50 (SN12C renal): 603 nM | TGI (SN12C renal): 1660 nM | GI50 (IGROV1 ovarian): 785 nM | TGI (IGROV1 ovarian): 2360 nM | GI50 (MDA-MB-468 breast): 148 nM | TGI (MDA-MB-468 breast): 433 nM | GI50 (OVCAR-5 ovarian): 1580 nM | TGI (OVCAR-5 ovarian): 5110 nM | GI50 (HT29 colon): 2600 nM | TGI (HT29 colon): 11300 nM | GI50 (HCT-15 colon): 1020 nM | TGI (HCT-15 colon): 2480 nM | GI50 (NCI-H460 lung): 509 nM | TGI (NCI-H460 lung): 1810 nM | GI50 (SF-295 CNS): 1410 nM | TGI (SF-295 CNS): 2760 nM | GI50 (MDA-MB-435): 356 nM | TGI (MDA-MB-435): 1390 nM | GI50 (UACC-257 melanoma): 548 nM | TGI (UACC-257 melanoma): 1900 nM | GI50 (MCF7 breast): 499 nM | TGI (MCF7 breast): 2280 nM | GI50 (786-0 renal): 1860 nM | TGI (786-0 renal): 3840 nM | GI50 (K-562 leukemia): 326 nM | TGI (K-562 leukemia): > 100000 nM | GI50 (HL-60(TB) leukemia): 246 nM | TGI (HL-60(TB) leukemia): 1820 nM | GI50 (SNB-19 CNS): 410 nM | TGI (SNB-19 CNS): 1420 nM | GI50 (M14 melanoma): 408 nM | TGI (M14 melanoma): 1540 nM | GI50 (SF-268 CNS): 1290 nM | TGI (SF-268 CNS): 3560 nM | GI50 (HS 578T breast): 1320 nM | TGI (HS 578T breast): 4270 nM | GI50 (OVCAR-8 ovarian): 1040 nM | TGI (OVCAR-8 ovarian): 6100 nM | GI50 (OVCAR-4 ovarian): 549 nM | TGI (OVCAR-4 ovarian): 6760 nM | GI50 (CCRF-CEM leukemia): 826 nM | TGI (CCRF-CEM leukemia): 4750 nM | GI50 (RXF 393 renal): 707 nM | TGI (RXF 393 renal): 2150 nM | GI50 (RPMI-8226 leukemia): 303 nM | TGI (RPMI-8226 leukemia): 1820 nM | GI50 (NCI/ADR-RES ovarian): 3290 nM | TGI (NCI/ADR-RES ovarian): > 100000 nM | GI50 (UACC-62 melanoma): 573 nM | TGI (UACC-62 melanoma): 1560 nM | GI50 (MALME-3M melanoma): 397 nM | TGI (MALME-3M melanoma): 1190 nM | GI50 (NCI-H23 lung): 1100 nM | TGI (NCI-H23 lung): 2740 nM | GI50 (MOLT-4 leukemia): 771 nM | TGI (MOLT-4 leukemia): 3240 nM | GI50 (SW-620 colon): 997 nM | TGI (SW-620 colon): 2670 nM | GI50 (MDA-MB-231 breast): 1070 nM | TGI (MDA-MB-231 breast): 2570 nM | GI50 (COLO 205 colon): 1470 nM | TGI (COLO 205 colon): 3010 nM | GI50 (SK-MEL-5 melanoma): 276 nM | TGI (SK-MEL-5 melanoma): 693 nM
